Experimental data published in patent publication US20220017489A1, “SOLID DISPERSIONS FOR TREATMENT OF CANCER” (Celgene Corporation, priority 2018, published 2022).
In brackets after ≈: the same amount, converted by molar mass. Where two headings read alike, the source gives them in different places.

Tests used:
[1] = Amorphous solid dispersion screen for Compound 1A: HT-XRPD after accelerated aging conditions (40° C./70% RH, 4 weeks); assay type: physicochemical; settings: HT-XRPD form after accelerated aging conditions, 4 weeks at 40° C. and 70% RH
Experimental: The plates were mounted on a Bruker General Area Detector Diffraction System (GADDS) equipped with a VÅNTEC-500 gas area detector corrected for intensity and geometric variations. The calibration of the measurement accuracy (peaks position) was performed using NIST SRM1976 standard (Corundum).
No background subtraction or curve smoothing was applied to the XRPD patterns.

[2] = Solubility determination of amorphous solid dispersions of Compound 1A in water, SIF and SGF at 37° C.; assay type: physicochemical
Experimental: For the solubility determination, suspensions of Compound 1A and dispersions were prepared in 3 mL aqueous medium. […] Samples were taken after 0.5, 1 and 2 hours, filtered over a PTFE spin filter and the concentration of Enasidenib in solution was determined by HPLC analysis. In the next sections the solubility results are discussed per aqueous media.
The concentration of API in solution was determined by HPLC analysis after 0.5, 1 and 2 hours.

[3] = Quantitative (24-hour shake flask) thermodynamic solubility of Compound 1A in organic solvents and water; assay type: physicochemical; settings: room temperature
Experimental: The solubility of Compound 1A was quantitatively assessed in 10 different organic solvents and water. Slurries were prepared by mixing 30 mg of Compound 1A with an appropriate solvent volume. A stirring bean was added and the suspensions were stirring (500 rpm) at room temperature for 24 hours. An aliquot of the suspension was transferred into a spin filter (nylon, 0.2 μm). The solubility of the filtered solution was determined by HPLC.

[4] = Kinetic solubility of Compound 1A in SIF and SGF (DMSO solutions added to medium); assay type: physicochemical; settings: 80 μL of 60, 30, 15 and 5 mg/mL DMSO solutions added to 4 mL
Experimental: Prior to the solvent shift experiments, the kinetic solubility of Compound 1A was tested in simulated intestinal fluid (SIF) and simulated gastric fluid (SGF) in order to choose the Compound 1A concentration suitable for the solvent shift experiments. Four different Compound 1A solutions (in DMSO) were prepared with concentrations of 60, 30, 15 and 5 mg/mL. Subsequently, 80 μL of these solutions were added to 4 mL of SGF and to 4 mL of SIF.
For the solvent shift experiments in SIF, Compound 1A concentration in DMSO of 5 mg/mL was used.

[5] = Anti-precipitant screening of Compound 1A by solvent shift method in SIF; assay type: physicochemical; settings: control experiment, crystalline solid, no polymer
Experimental: The anti-precipitant screen by the solvent shift method was used for discovering polymers that can maintain the supersaturated state of Compound 1A in solution. Based on the results of this screen, polymers were selected for the development of the ASD.
The concentration of free base in solution was determined by HPLC analysis.

[6] = 37° C.
[7] = physchem; settings: thermodynamic from solid
[8] = thermodynamic from solid, Water

SMILES: CC(C)(O)CNc1nc(Nc2ccnc(C(F)(F)F)c2)nc(-c2cccc(C(F)(F)F)n2)n1 [ASD102]
- XRPD AAC [1]: Form 1
- Concentration API ([2]; SGF, 0.5 hours): 20800 ng/mL
- Concentration API ([2]; SGF, 1 hour): 13000 ng/mL
- Concentration API ([2]; SGF, 2 hours): 10900 ng/mL
- Concentration API ([2]; SIF, 0.5 hours): <100 ng/mL
- Concentration API ([2]; SIF, 1 hour): <100 ng/mL
- Concentration API ([2]; SIF, 2 hours): <100 ng/mL
- Concentration API ([2]; Water, 0.5 hours): <100 ng/mL
- Concentration API ([2]; Water, 1 hour): <100 ng/mL
- Concentration API ([2]; Water, 2 hours): <100 ng/mL

SMILES: CC(C)(O)CNc1nc(Nc2ccnc(C(F)(F)F)c2)nc(-c2cccc(C(F)(F)F)n2)n1 [Compound 1A, 2-methyl-1-[(4-[6-(trifluoromethyl)pyridin-2-yl]-6-{[2-(trifluoromethyl)pyridin-4-yl]amino}-1,3,5-triazin-2-yl)amino]propan-2-ol]
- solubility ([3]; Water): practically insoluble
- solubility at 24 h ([3]; organic solvent or mixture, thermodynamic from solid, 1,4-Dioxane): 69200 µg/mL (≈ 146 mM)
- solubility at 24 h ([3]; organic solvent or mixture, thermodynamic from solid, 2-Propanol): 229000 µg/mL (≈ 484 mM)
- solubility at 24 h ([3]; organic solvent or mixture, thermodynamic from solid, Acetone): 209000 µg/mL (≈ 442 mM)
- solubility at 24 h ([3]; organic solvent or mixture, thermodynamic from solid, Acetonitrile): 14700 µg/mL (≈ 31.1 mM)
- solubility at 24 h ([3]; organic solvent or mixture, thermodynamic from solid, Chloroform): 70600 µg/mL (≈ 149 mM)
- solubility at 24 h ([3]; organic solvent or mixture, thermodynamic from solid, Ethanol): > 408000 µg/mL
- solubility at 24 h ([3]; organic solvent or mixture, thermodynamic from solid, Ethyl acetate): 127000 µg/mL (≈ 268 mM)
- solubility at 24 h ([3]; organic solvent or mixture, thermodynamic from solid, Methanol): > 463000 µg/mL
- solubility at 24 h ([3]; organic solvent or mixture, thermodynamic from solid, Tetrahydrofuran): > 429000 µg/mL
- solubility at 24 h [3, 8]: < 100 µg/mL
- Kinetic solubility (precipitation) ([4]; SGF): precipitation was observed when using the solution with the highest concentration
- Kinetic solubility (precipitation) ([4]; SIF): precipitated using all four concentrations
- Solubility of crystalline Compound 1A in SIF [5]: practically insoluble
- Concentration API ([2]; SGF, 0.5 hours): ~80000 ng/mL
- Concentration API ([2]; SGF, 0.5 hours, listed as SM): 75800 ng/mL
- Concentration API ([2]; SGF, 1 hour): 41300 ng/mL
- Concentration API ([2]; SGF, 2 hours): about 20 μg/mL
- Concentration API ([2]; SGF, 2 hours, listed as SM): 19400 ng/mL
- Concentration API ([2]; SIF, 0.5 hours): 300 ng/mL
- Concentration API ([2]; SIF, 1 hour): <100 ng/mL
- Concentration API ([2]; SIF, 2 hours): <100 ng/mL
- Concentration API ([2]; Water, 0.5 hours, listed as SM): 1000 ng/mL
- Concentration API ([2]; Water, 1 hour): 400 ng/mL
- Concentration API ([2]; Water, 2 hours): <100 ng/mL
- solubility [2, 8]: ~1 µg/mL (≈ 0.00211 mM)
- Concentration API (μg/mL) 0.5 h ([6]; SGF): 21.9 µg/mL
- pH 0.5 h ([6]; SGF): 1.24
- Concentration API (μg/mL) 1 h ([6]; SGF): 17.2 µg/mL
- Concentration API (μg/mL) 2 h ([6]; SGF): 14.6 µg/mL
- pH 2 h ([6]; SGF): 1.23
- Concentration API (μg/mL) 0.5 h ([6]; SIF): 0.4 µg/mL
- pH 0.5 h ([6]; SIF): 6.60
- Concentration API (μg/mL) 1 h ([6]; SIF): <0.1 µg/mL
- Concentration API (μg/mL) 2 h ([6]; SIF): <0.1 µg/mL
- pH 2 h ([6]; SIF): 6.44
- Concentration API (μg/mL) 0.5 h ([6]; Water): 0.7 µg/mL
- pH 0.5 h ([6]; Water): 2.64
- Concentration API (μg/mL) 1 h ([6]; Water): 0.4 µg/mL
- Concentration API (μg/mL) 2 h ([6]; Water): 0.3 µg/mL
- pH 2 h ([6]; Water): 2.15
- solubility at 24 h ([7]; 1,4-dioxane, organic solvent or mixture): 400 µg/mL (≈ 0.845 mM)
- solubility at 24 h ([7]; 2-propanol, organic solvent or mixture): 1400 µg/mL (≈ 2.96 mM)
- solubility at 24 h ([7]; acetone, organic solvent or mixture): 900 µg/mL (≈ 1.9 mM)
- solubility at 24 h ([7]; acetonitrile, organic solvent or mixture): 500 µg/mL (≈ 1.06 mM)
- solubility at 24 h ([7]; chloroform, organic solvent or mixture): 200 µg/mL (≈ 0.422 mM)
- solubility at 24 h ([7]; ethanol, organic solvent or mixture): 7300 µg/mL (≈ 15.4 mM)
- solubility at 24 h ([7]; ethyl acetate, organic solvent or mixture): 200 µg/mL (≈ 0.422 mM)
- solubility at 24 h ([7]; methanol, organic solvent or mixture): 35600 µg/mL (≈ 75.2 mM)
- solubility at 24 h ([7]; tetrahydrofuran, organic solvent or mixture): 1800 µg/mL (≈ 3.8 mM)
- solubility at 24 h ([7]; water): < 100 µg/mL
